Holding throughout (test): DTP human tumour cell line panel, 48 h
Test [1] relates to SW-620 colon.
The subject of test [2] is MDA-MB-231 breast.
The subject of test [3] is A498 renal.
For test [4], the system named is OVCAR-5 ovarian.
The subject of test [5] is A549 NSCLC.
In test [6] the test system is SNB-75 CNS.
In test [7] the test system is HOP-92 NSCLC.
Test [8] deals with 786-0 renal.
The test system of test [9] is HS 578T breast.
Test [10] has as its system HL-60(TB) leukemia.
In test [11] the test system is CAKI-1 renal.
Test [12] deals with SK-MEL-28 melanoma.
Test [13] concerns DU-145 prostate.

This note sets out measurements from PubChem BioAssay (NCI).

For orientation: TGI means the concentration giving total growth inhibition.

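Growth conditions: 96-well plates. Treatment: test compound, 48 hours, 5 concentrations. Analysis: linear interpolation between bracketing concentrations; unreached endpoints set to highest concentration. At the TGI there is no net growth.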

As to `COc1cc(/C=C2\CC3C4CC=C5C[C@@H](O)CC[C@]5(C)C4CC[C@]3(C)\C2=N\O)cc(OC)c1OC` (stereo partly drawn), the TGI in test [1] is more than 100 µM; in [2] it was 74 µM; in [3], 42.6 µM; in test [4], 61.1 µM; in test [5] it was more than 100 µM; in test [6], more than 100 µM. In addition, the TGI is more than 100 µM in test [7]; 72.2 µM in test [8]; more than 100 µM in [9]; more than 100 µM in test [10]; 37.7 µM in test [11]; more than 100 µM in test [12]. For the same molecule, the TGI in [13] was more than 100 µM.
Regarding `O=S(=O)(O)c1cc(O)c(N=NC2S(=O)(=O)OCCOS2(=O)=O)c2ccccc12`, the TGI in test [1], in test [2], in test [3], in test [4], in test [5] and in test [6] was more than 100 µM in each case. The TGI in [7], in test [8], in test [9], in test [10], in test [11] and in test [12] was more than 100 µM in each case. This molecule also registered a TGI in test [13] of more than 100 µM.
For the molecule `CN(C)N1C(=C(C#N)C#N)C(c2ccccc2)CC1C#N` (stereo not drawn), the TGI in test [1], in [2], in test [3], in test [4], in test [5] and in [6] was more than 100 µM in each case. For the same molecule, the TGI in test [7], in [8], in test [9], in test [10], in [11] and in test [12] was more than 100 µM throughout. The TGI in test [13] was more than 100 µM.
Take `Cn1c2ccccc2n2c(=O)c(-c3ccc(Cl)cc3)nnc12`: the TGI in test [1], in [2], in test [3], in test [4], in test [5] and in test [6] was more than 100 µM each time. Besides, the TGI in [7], in [8], in test [9], in test [10], in test [11] and in [12] was more than 100 µM throughout. Further, in [13], the TGI is more than 100 µM.
For the molecule `COc1nc2ncc([C@@H](OC(C)=O)[C@@H](COC(C)=O)OC(C)=O)nc2c(=O)n1C`, the TGI in [1], in [2], in test [3], in test [4], in [5] and in test [6] was more than 100 µM in each case. In addition, the TGI in test [7] is more than 100 µM; in test [8] it was more than 100 µM; in [9] it was more than 100 µM; in test [10], 87.8 µM; in test [11] it was more than 100 µM; in test [12], more than 100 µM. This molecule also came in with a TGI in test [13] of more than 100 µM.
As for `Nc1nc(N)c2cc(-c3cc4ccccc4[nH]3)ccc2n1`, the TGI in test [1] was 90.3 µM; in [2], 39.3 µM; in [3], 32.7 µM; in test [4] it was 65 µM; in test [5], more than 100 µM; in test [6], more than 100 µM. Also, the TGI in test [7] is 35.2 µM; in [8], 49.6 µM; in test [9] it was more than 100 µM; in test [10], 47.7 µM; in [11], 94.9 µM; in test [12], 48.7 µM. For the same molecule, the TGI in test [13] came out at 58.8 µM.
Consider `Cc1ccc(S(=O)(=O)N(CC(O)COc2ccccc2)c2c(F)c(F)c(F)c(F)c2F)cc1` (stereo not drawn), for which the TGI was 36.2 µM in [1]; 30.7 µM in test [2]; 33.2 µM in test [3]; 34.1 µM in test [4]; 36.8 µM in test [5]; 36.5 µM in test [6]. Besides, the TGI in test [7] stood at 21.7 µM; in [8], 38.8 µM; in test [9], 42.6 µM; in test [10], 42.2 µM; in [11] it was 26.7 µM; in [12], 31.6 µM. The TGI in test [13] turned out to be 72.9 µM.
For the molecule `CCN(CC)C1=Nc2ccccc2-n2ccnc2C1`, the TGI in test [1], in [2], in test [3], in test [4], in [5] and in test [6] was more than 100 µM throughout. Further, the TGI in [7], in test [8], in [9], in test [10], in [11] and in test [12] was more than 100 µM in each case. The molecule also returned a TGI in test [13] of more than 100 µM.
As to `C[N+](C)(N)Cc1nc(-c2ccc(Cl)cc2)no1`, the TGI in test [1], in test [2], in test [3], in test [4], in test [5] and in test [6] was more than 100 µM in each case. The total growth inhibition concentration (TGI) in test [7], in [8], in test [9], in [10], in [11] and in [12] was more than 100 µM each time. The total growth inhibition concentration (TGI) in test [13] is more than 100 µM.
Turning to `COc1cc2ncnc(Nc3cccc(Br)c3)c2cc1OC`, the TGI in [1] was more than 50.2 µM; in [2], 21.5 µM; in [3], 29.4 µM; in [4], 25 µM; in test [5], more than 69.1 µM; in [6], 29.3 µM. For the same molecule, the TGI in test [7] was 36.3 µM; in [8], 4.8 µM; in test [9], 53.2 µM; in test [10] it was more than 75.2 µM; in [11] it was more than 52.1 µM; in [12], more than 44.9 µM. In test [13], this molecule returned a TGI of 34.2 µM.
Turning to `Cc1cc2c3c(c1)S(=O)(=O)c1cc(Cl)ccc1N3CCC2`, the TGI in [1], in test [2], in [3], in test [4], in [5] and in test [6] was more than 100 µM throughout. Besides, the TGI in test [7], in test [8], in [9], in test [10], in test [11] and in test [12] was more than 100 µM throughout. For the same molecule, the TGI in [13] is more than 100 µM.
